Assay results as given in article PMC5113775, “Mirror‐Image Packing Provides a Molecular Basis for the Nanomolar Equipotency of Enantiomers of an Experimental Herbicide” (Angewandte Chemie (International Ed. in English), 2016).

Legend:
[1] = target: T1, At ΔN IGPD2 construct B (Arabidopsis thaliana, UniProt O23346); test: in vitro enzyme inhibition assay; crystal structure; format: biochemical
T1 construct: gene HISN5B; N-terminally truncated (delta-N) construct B, shorter than construct A; borders only in supplement; Mn2+ enzyme; EC 4.2.1.19

[2] = target: T2, At ΔN IGPD2 construct A (Arabidopsis thaliana, UniProt O23346); test: crystal structure, […] Å; format: binding; conditions: active site, two manganese ions; racemate
T2 construct: gene HISN5B; N-terminally truncated (delta-N) construct A, longer than construct B; borders only in supplement
T2 sequence (O23346 53-272, stated change not applied): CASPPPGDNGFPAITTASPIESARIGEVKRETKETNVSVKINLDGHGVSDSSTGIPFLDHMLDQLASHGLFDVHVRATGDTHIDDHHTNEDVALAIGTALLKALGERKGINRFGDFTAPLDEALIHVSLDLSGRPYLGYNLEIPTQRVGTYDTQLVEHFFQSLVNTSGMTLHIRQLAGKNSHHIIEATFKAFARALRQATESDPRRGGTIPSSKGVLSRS

T1 sequence (O23346 69-272, stated change not applied): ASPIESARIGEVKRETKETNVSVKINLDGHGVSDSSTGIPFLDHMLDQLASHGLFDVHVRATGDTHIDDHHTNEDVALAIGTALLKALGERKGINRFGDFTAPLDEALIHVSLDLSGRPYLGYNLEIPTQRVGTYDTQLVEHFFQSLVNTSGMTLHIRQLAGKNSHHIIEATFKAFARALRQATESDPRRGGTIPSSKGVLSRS

Compound | Ki [1] [nM] | crystal structure, 1.85 Å [2]
O=P(O)(O)C[C@@H](O)Cn1cncn1 [(S)‐C348, 2‐hydroxy‐3‐(1,2,4‐triazol‐1‐yl) propylphosphonate] | 25 ± 3 | 
O=P(O)(O)C[C@H](O)Cn1cncn1 [(R)‐C348, 2‐hydroxy‐3‐(1,2,4‐triazol‐1‐yl) propylphosphonate] | 15 ± 5 | 
O=P(O)(O)CC(O)Cn1cncn1 (racemic) [C348, 2‐hydroxy‐3‐(1,2,4‐triazol‐1‐yl) propylphosphonate] |  | grown in the presence of a racemate of C348 and the structure
